Measured values as given in patent publication US20150258059A1, “ANTIMICROBIAL AND RADIOPROTECTIVE COMPOUNDS” (BioDiem, Ltd, priority 2001, published 2015).
In brackets after ≈: the same amount, converted by molar mass. Read-outs that look alike come from different tables or passages of the source. Marks after values point to notes of the source that are not given here.

How the values were obtained:
[1] = tested on: Klebsiella pneumoniae M-A21; assay: Sensitivity of strains: suppression of growth; assay type: cell-based; conditions: Compound (1) 1.0%; antibiotics disc method
[2] = tested on: Neisseria meningitidis M-A72; assay: Sensitivity of strains: suppression of growth; assay type: cell-based; conditions: Compound (1) 1.0%; antibiotics disc method
[3] = tested on: Staphylococcus aureus M-209; assay: Sensitivity of strains: suppression of growth; assay type: cell-based; conditions: Compound (1) 1.0%; antibiotics disc method
[4] = tested on: γ-hemolytic streptococcus B-672; assay: Sensitivity of strains: suppression of growth; assay type: cell-based; conditions: Compound (1) 1.0%; antibiotics disc method
[5] = tested on: β-hemolytic streptococcus B-624; assay: Sensitivity of strains: suppression of growth; assay type: cell-based; conditions: Compound (1) 1.0%; antibiotics disc method
Shigella sonnei B-720 = assay: Agar diffusion assay; assay type: cell-based
[6] = tested on: Salmonella paratyphi M-16469; assay: Agar diffusion assay; assay type: cell-based
Candida albicans B-45 = assay: Sensitivity of pathogenic fungi; assay type: cell-based; conditions: Inoculation 5 × 10^4
[7] = tested on: Torula histolytica (Cryptococcus); assay: Sensitivity of pathogenic fungi; assay type: cell-based; conditions: Inoculation 10^5
Pseudomonas = assay: Agar plug diffusion, zone of retardation; assay type: cell-based, Pseudonomas aeruginosa; conditions: plug impregnated at 0.5%
[8] = tested on: Acinetobacter calcoaceticus RMIT; assay: NCCLS broth microdilution MIC/MBC; assay type: cell-based; conditions: for MIC: Acinetobacter calcoaceticus
Text: (§1) NCCLS-USA Standard Method—Broth microdilution (or macrodilution) (Mueller-Hinton).
(§2) Inoculum 1-4×10^4 cfu (or −4×10^5 cfu). Ciprofloxacin test control. Chlorhexidine values added for disinfectant and antiseptic activity comparison.

Campylobacter spp. = assay: NCCLS broth microdilution MIC/MBC; assay type: cell-based; conditions: Table 9, 48 h
Text: as §1, §2

Clostridium difficile = assay: NCCLS broth microdilution MIC/MBC; assay type: cell-based; conditions: Clostridioides difficile; Table 9
Text: as §1, §2

Klebsiella oxytoca [9] = assay: NCCLS broth microdilution MIC/MBC; assay type: cell-based; conditions: for MIC: Klebsiella oxytoca
Text: as §1, §2

Bacteroides fragilis = assay: NCCLS broth microdilution MIC/MBC; assay type: cell-based; conditions: for MIC: Bacteroides fragilis
Proteus vulgaris RMIT = assay: NCCLS broth microdilution MIC/MBC; assay type: cell-based; conditions: for MIC: Proteus vulgaris
Proteus mirabilis = assay: NCCLS broth microdilution MIC/MBC; assay type: cell-based; conditions: for MIC: Proteus mirabilis
Salmonella typhimurium = assay: NCCLS broth microdilution MIC/MBC; assay type: cell-based
[10] = tested on: Escherichia coli ATCC 25922; assay: NCCLS broth microdilution MIC/MBC; assay type: cell-based; conditions: for MIC: Escherichia coli, ATCC25922, read-out: MIC
[11] = tested on: Pseudomonas aeruginosa ATCC 27853; assay: NCCLS broth microdilution MIC/MBC; assay type: cell-based; conditions: for MIC: Pseudomonas aeruginosa, ATCC27853, read-out: MIC
Trichophyton rubrum = assay: NCCLS broth macro-dilution MIC/MFC (RPMI); assay type: cell-based; conditions: Table 10, 7 day, 30° C.
Candida albicans [12] = assay: NCCLS broth macro-dilution MIC/MFC (RPMI); assay type: cell-based; conditions: Table 10, 4 day, 30° C.
Aspergillus fumigatus = assay: NCCLS broth macro-dilution MIC/MFC (RPMI); assay type: cell-based; conditions: Table 10, 7 day, 30° C.
B. subtilis = assay: Antibacterial activity in the presence of blood, macrodilution; assay type: cell-based; conditions: for MIC: Bacillus subtilis
Candida albicans [13] = assay: M38-P microdilution MIC/MFC; assay type: cell-based; conditions: Table 16, 24 h, 35° C.
C. krusei RMIT 177 = assay: M38-P microdilution MIC/MFC; assay type: cell-based; conditions: 35° C.
S. pyogenes = assay: Broth dilution bioassay, low inoculum; assay type: cell-based; conditions: in MHB
physchem = conditions: aqueous with cosolvent or surfactant or cyclodextrin
Klebsiella oxytoca [14] = assay: Rate of kill, viable counts
Staphylococcus aureus = assay: Agar plug diffusion, zone of retardation; conditions: plug impregnated at 0.5%

C/C(=C\c1ccc2c(c1)OCO2)[N+](=O)[O-] [Compound (1)]
Suppression of Growth (+/−) [1]: +
Suppression of Growth (+/−) [2]: +
Suppression of Growth (+/−) [3]: +
Suppression of Growth (+/−) [4]: +
Suppression of Growth (+/−) [5]: +
Diameter of zone of Growth inhibition (Shigella sonnei B-720; Concentration in disc 0.1%): 30# mm
Diameter of zone of Growth inhibition (Shigella sonnei B-720; Concentration in disc 1.0%): 35# mm
Diameter of zone of Growth inhibition (Shigella sonnei B-720; Concentration in disc 2.0%): 39# mm
Diameter of zone of Growth inhibition ([6]; Concentration in disc 0.1%): 28# mm
Diameter of zone of Growth inhibition ([6]; Concentration in disc 1.0%): 30# mm
Diameter of zone of Growth inhibition ([6]; Concentration in disc 2.0%): 36# mm
Number of microbes: Growth (Candida albicans B-45; 0.1%): 0
Number of microbes: Retardation (Candida albicans B-45; 0.1%): 5 × 10^6
Number of microbes: Growth (Candida albicans B-45; 0.5%): 0
Number of microbes: Retardation (Candida albicans B-45; 0.5%): 5 × 10^6
Number of microbes: Growth (Candida albicans B-45; 2.0%): 0
Number of microbes: Retardation (Candida albicans B-45; 2.0%): 5 × 10^4
Number of microbes: Growth ([7]; 0.1%): 0
Number of microbes: Retardation ([7]; 0.1%): 10^5
Number of microbes: Growth ([7]; 0.5%): 0
Number of microbes: Retardation ([7]; 0.5%): 10^5
Number of microbes: Growth ([7]; 2.0%): 0
Number of microbes: Retardation ([7]; 2.0%): 10^5
Size of zone of retardation of the growth (Pseudomonas): 0
MIC ([8]; Table 9, 35° C., 24 hours): 128 µg/mL (≈ 618 µM)
MIC ([8]; Table 17, 2 or 3 replicates): 128 µg/mL (≈ 618 µM)
MMC ([8]; Table 9, 35° C., 24 hours): 256 µg/mL
MMC ([8]; Table 17, 2 or 3 replicates): 256 µg/mL
MIC (Campylobacter spp.; Campylobacter): 128 µg/mL (≈ 618 µM)
MMC (Campylobacter spp.): 128 µg/mL
MIC (Clostridium difficile): 4 µg/mL (≈ 19.3 µM)
MIC (Klebsiella oxytoca [9]; Table 9, 35° C., 24 hours): 128 µg/mL (≈ 618 µM)
MIC (Klebsiella oxytoca [9]; Table 17, 2 or 3 replicates): 128 µg/mL (≈ 618 µM)
MMC (Klebsiella oxytoca [9]; Table 9, 35° C., 24 hours): 256 µg/mL
MMC (Klebsiella oxytoca [9]; Table 17, 2 or 3 replicates): 256 µg/mL
MIC (Bacteroides fragilis; Table 9, 48 h): 16 µg/mL (≈ 77.2 µM)
MIC (Bacteroides fragilis; Table 17, 2 or 3 replicates): 16 µg/mL (≈ 77.2 µM)
MMC (Bacteroides fragilis; Table 9, 48 h): 32 µg/mL
MMC (Bacteroides fragilis; Table 17, 2 or 3 replicates): 32 µg/mL
MIC (Proteus vulgaris RMIT): 128 µg/mL (≈ 618 µM)
MIC (Proteus vulgaris RMIT; 24 h): 128 µg/mL (≈ 618 µM)
MMC (Proteus vulgaris RMIT; Table 9, 35° C., 24 hours): 256 µg/mL
MMC (Proteus vulgaris RMIT; Table 17, 2 or 3 replicates): 128 µg/mL
MIC (Proteus mirabilis): 256 µg/mL (≈ 1240 µM)
MIC (Proteus mirabilis; 24 h): 256 µg/mL (≈ 1240 µM)
MMC (Proteus mirabilis; Table 9, 35° C., 24 hours): >512 µg/mL
MMC (Proteus mirabilis; Table 17, 2 or 3 replicates): >512 µg/mL
MIC (Salmonella typhimurium; Salmonella enterica, TYPHIMURIUM, 24 h): 256 µg/mL (≈ 1240 µM)
MMC (Salmonella typhimurium; Table 9, 35° C., 24 hours): >512 µg/mL
MIC ([10]; Table 9, 35° C., 24 hours): > 512 µg/mL
MIC ([10]; Table 17, 2 or 3 replicates): > 512 µg/mL
MMC ([10]; Table 9, 35° C., 24 hours): >512 µg/mL
MMC ([10]; Table 17, 2 or 3 replicates): >512 µg/mL
MIC ([11]; Table 9, 35° C., 24 hours): > 512 µg/mL
MIC ([11]; Table 17, 2 or 3 replicates): > 512 µg/mL
MMC ([11]; Table 9, 35° C., 24 hours): >512 µg/mL
MMC ([11]; Table 17, 2 or 3 replicates): >512 µg/mL
MMC (Trichophyton rubrum): 256 µg/mL
MIC (Trichophyton rubrum; Trichophyton rubrum, 168 h): 1 µg/mL (≈ 4.83 µM)
MIC (Candida albicans [12]; Candida albicans, 96 h): 8 µg/mL (≈ 38.6 µM)
MMC (Candida albicans [12]): 8 µg/mL
MIC (Aspergillus fumigatus; Aspergillus fumigatus, 168 h): 8 µg/mL (≈ 38.6 µM)
MMC (Aspergillus fumigatus): 32 µg/mL
MMC (B. subtilis; 5% blood): 16 µg/mL
MMC (B. subtilis; 10% plasma): 8 µg/mL
MIC (B. subtilis; 5% blood): 8 µg/mL
MIC (B. subtilis; 10% plasma): 8 µg/mL
MIC (B. subtilis; — (no plasma or blood)): 16 µg/mL
MIC (Candida albicans [13]; Candida albicans, read-out: MIC): 8 µg/mL (≈ 38.6 µM)
MMC (Candida albicans [13]): 8 µg/mL
MIC (C. krusei RMIT 177; Pichia kudriavzevii, RMIT177, Table 16, 24 h, read-out: MIC): 4 µg/mL (≈ 19.3 µM)
MMC (C. krusei RMIT 177; Table 16, 24 h): 4 µg/mL
concentration inhibiting low inoculum (S. pyogenes): 1 µg/mL
solubility (physchem): 1000 µg/mL (≈ 4830 µM)
Log reduction in viable count (Klebsiella oxytoca [14]; 256 μg/mL): 0
Log reduction in viable count (Klebsiella oxytoca [14]; 512 μg/mL): 0
Size of zone of retardation of the growth (Staphylococcus aureus): 6.5
